Tests used:
Type in all cases: functional
[1] = system: Rattus norvegicus; test: (§1) Antiinflammatory activity in carrageenan induced Wistar rat model of acute aseptic inflammation assessed as healthy paw volume at 25 mg/kg, IG preadministered with compound for 1 hrs followed by carrageenan administration and measured after 3 hrs by water displacement plethysmometer (reference value: 1.38 +/- 0.06 ml); conditions: time 4 hrs
[2] = system: Rattus norvegicus; test: Antiinflammatory activity in Wistar rat model of acute aseptic inflammation assessed as inhibition of carrageenan-induced exudative inflammation at 25 mg/kg, IG preadministered with compound for 1 hrs followed by carrageenan administration and measured after 3 hrs by water displacement plethysmometer relative to control; conditions: po, time 4 hrs
[3] = system: Rattus norvegicus; test: as §1, with “edema” for “healthy”, “2.23” for “1.38”, “0.13” for “0.06”; conditions: time 4 hrs
[4] = system: Rattus norvegicus; test: as §1, with “edema” for “healthy”, “2.48” for “1.38”, “0.09” for “0.06”; conditions: time 4 hrs
[5] = system: Rattus norvegicus; test: as §1, with “1.20” for “1.38”; conditions: time 4 hrs
[6] = system: Rattus norvegicus; test: (§2) Antiinflammatory activity in Wistar rat model of acute aseptic inflammation assessed as reduction in paw edema by measuring eNOS level at 25 mg/kg, IG preadministered with compound for 1 hrs followed by carrageenan administration and measured after 3 hrs by ELISA (reference value: 8.150 +/- 6.576 pg/ml); conditions: time 4 hrs
[7] = system: Rattus norvegicus; test: as §2, with “nitrotyrosine” for “eNOS”, “16.45” for “8.150”, “3.748 nM/ml)” for “6.576 pg/ml)”; conditions: time 4 hrs
[8] = system: Rattus norvegicus; test: as §2, with “C-reactive protein” for “eNOS”, “10.64” for “8.150”, “1.223 ng/ml)” for “6.576 pg/ml)”; conditions: time 4 hrs
[9] = system: Rattus norvegicus; test: as §2, with “COX-2” for “eNOS”, “15.00” for “8.150”, “4.243 ng/ml)” for “6.576 pg/ml)”; conditions: time 4 hrs
[10] = system: Rattus norvegicus; test: as §2, with “IL-1beta” for “eNOS”, “3.250” for “8.150”, “0.778” for “6.576”; conditions: time 4 hrs
[11] = system: Rattus norvegicus; test: as §2, with “neutrophils” for “eNOS”, “hrs” for “hrs by ELISA”, “4.100” for “8.150”, “0.424 10^3/ml)” for “6.576 pg/ml)”; conditions: time 4 hrs
[12] = system: Rattus norvegicus; test: Antiinflammatory activity in Wistar rat model of acute aseptic inflammation assessed as decrease in nitrotyrosine level at 25 mg/kg, IG preadministered with compound for 1 hrs followed by carrageenan administration and measured after 3 hrs by ELISA relative to control; design: scale not given: the % may be the effect or the level left; conditions: time 4 hrs
[13] = system: Rattus norvegicus; test: Antiinflammatory activity in Wistar rat model of acute aseptic inflammation assessed as increase in eNOS level at 25 mg/kg, IG preadministered with compound for 1 hrs followed by carrageenan administration and measured after 3 hrs by ELISA relative to control; conditions: time 4 hrs

CCOC(=O)c1ccc(-c2nc3n(n2)C2(C(=O)O)CCC(=O)N2c2ccccc2-3)cc1 (stereo not drawn) was tested, and the Activity [1] was 1.43 mL, the inhibition in vivo at 25 mg/kg [2] was 5.75% and the Activity [3] was 2.23 mL.
For O=C1CCC2(C(=O)O)N1c1ccccc1-c1nc(-c3ccccc3)nn12 (stereo not drawn), the Activity [1] was 1.39 mL, the inhibition in vivo at 25 mg/kg [2] was 6.22% and the Activity [3] was 2.19 mL.
Compound O=C(O)c1ccc(C2Nc3ccccc3-c3nc(-c4ccccc4)nn32)cc1 (stereo not drawn) has an Activity [4] of 2.35 mL, an inhibition in vivo at 25 mg/kg [2] of 16.1% and an Activity [5] of 1.28 mL.
CCOC(=O)c1ccc(-c2nc3n(n2)C(c2ccc(C(=O)O)c(O)c2)Nc2ccccc2-3)cc1 (stereo not drawn) gave an Activity [4] of 2.38 mL, an inhibition in vivo at 25 mg/kg [2] of 18.3% and an Activity [5] of 1.39 mL.
CCOC(=O)c1ccc(-c2nc3n(n2)C(c2ccc(C(=O)O)cc2)Nc2ccccc2-3)cc1 (stereo not drawn) showed an Activity [4] of 2.37 mL, an inhibition in vivo at 25 mg/kg [2] of 21.9% and an Activity [5] of 1.38 mL. It also gave an Activity [6] of 14.43 pg/mL, an Activity [7] of 11.37 nM/ml and an Activity [8] of 5.8 ng/mL. For the same compound, the Activity [9] was 4.367 ng/mL, the Activity [10] was 0.87 pg/mL and the Activity [11] was 2.533 10^3/ml.
Work on CCOC(=O)CC1(C)Nc2ccccc2-c2nc(-c3ccc(OC)cc3)nn21 (stereo not drawn) yielded an Activity [1] of 1.33 mL, an inhibition in vivo at 25 mg/kg [2] of 7.27% and an Activity [3] of 2.12 mL.
For CCOC(=O)c1nc2n(n1)C1(CCC(=O)O)CCC(=O)N1c1ccccc1-2 (stereo not drawn), the Activity [1] was 1.28 mL, the inhibition in vivo at 25 mg/kg [2] was 12.2% and the Activity [3] was 2.03 mL.
With O=C(O)C1Nc2ccccc2-c2nc(-c3ccccc3)nn21 (stereo not drawn) the Activity [1] was 1.28 mL, the inhibition in vivo at 25 mg/kg [2] was 12.2% and the Activity [3] was 2.03 mL.
With CCOC(=O)c1nc2n(n1)C(c1ccc(C(=O)O)cc1)Nc1ccccc1-2 (stereo not drawn) the Activity [4] was 2.05 mL, the inhibition in vivo at 25 mg/kg [2] was 52.7% and the Activity [5] was 1.45 mL. It also gave an Activity [6] of 39.9 pg/mL, an Activity [7] of 5.367 nM/ml and an Activity [8] of 2.48 ng/mL. For the same compound, the Activity [9] was 3.033 ng/mL, the Activity [10] was 0.253 pg/mL and the Activity [11] was 1.667 10^3/ml.
O=C(O)CCC12CCC(=O)N1c1ccccc1-c1nc(-c3ccccc3)nn12 (stereo not drawn) was tested, and the Activity [1] was 1.41 mL, the inhibition in vivo at 25 mg/kg [2] was 0.94% and the Activity [3] was 2.25 mL.
With CCOC(=O)C1(C)Nc2ccccc2-c2nc(-c3ccccc3)nn21 (stereo not drawn) the Activity [1] was 1.39 mL, the inhibition in vivo at 25 mg/kg [2] was 24.3% and the Activity [3] was 2.03 mL.
In the case of O=C1c2ccccc2C2N1c1ccccc1-c1nc(-c3ccccc3)nn12 (stereo not drawn), the Activity [1] is reported as 1.25 mL, the inhibition in vivo at 25 mg/kg [2] is reported as 12.5% and the Activity [3] is reported as 1.99 mL.
With CCOC(=O)c1ccc(-c2nc3n(n2)C(c2cccc(C(=O)O)c2)Nc2ccccc2-3)cc1 (stereo not drawn) the Activity [4] was 2.24 mL, the inhibition in vivo at 25 mg/kg [2] was 31% and the Activity [5] was 1.36 mL. For the same compound, the Activity [6] was 28.03 pg/mL, the Activity [7] was 6.433 nM/ml and the Activity [8] was 4.233 ng/mL. The Activity [9] was 3.8 ng/mL, the Activity [10] was 0.613 pg/mL and the Activity [11] was 2.4 10^3/ml.
Work on O=C(O)c1cc(C2Nc3ccccc3-c3nc(-c4ccccc4)nn32)ccc1O (stereo not drawn) yielded an Activity [4] of 2.13 mL, an inhibition in vivo at 25 mg/kg [2] of 33.1% and an Activity [5] of 1.28 mL. It also gave an Activity [6] of 25.97 pg/mL, an Activity [7] of 10.67 nM/ml and an Activity [8] of 5.267 ng/mL. For the same compound, the Activity [9] was 11.27 ng/mL, the Activity [10] was 0.427 pg/mL and the Activity [11] was 2.433 10^3/ml. It also gave an Activity [12] of 30.88% and an Activity [13] of 77.06%.
In the case of CCOC(=O)c1nc2n(n1)C(c1ccc(O)c(C(=O)O)c1)Nc1ccccc1-2 (stereo not drawn), the Activity [4] is reported as 2.03 mL, the inhibition in vivo at 25 mg/kg [2] is reported as 45.8% and the Activity [5] is reported as 1.34 mL. It also gave an Activity [6] of 35.23 pg/mL, an Activity [7] of 5.6 nM/ml and an Activity [8] of 3.183 ng/mL. The Activity [9] was 3.7 ng/mL, the Activity [10] was 2.633 pg/mL and the Activity [11] was 2.133 10^3/ml.
With O=C([O-])Cc1ccccc1Nc1c(Cl)cccc1Cl.[Na+] [DICLOFENAC SODIUM] the Activity [1] was 1.55 mL, the inhibition in vivo at 25 mg/kg [2] was 69.8% and the Activity [6] was 8.43 pg/mL. For the same compound, the Activity [7] was 17.6 nM/ml, the Activity [8] was 4.245 ng/mL and the Activity [9] was 9.785 ng/mL. The Activity [10] was 1.27 pg/mL, the Activity [11] was 2.52 10^3/ml and the Activity [12] was 21.42%. The Activity [3] was 1.84 mL and the Activity [13] was 18.07%.

— ChEMBL document CHEMBL5543080, “5+1-Heterocyclization as preparative approach for carboxy-containing triazolo[1,5-c]quinazolines with anti-inflammatory activity” (2024)
